Data from patent US9023789B2, “Amylin analogs and pharmaceutical compositions thereof” (Novo Nordisk A/S, priority 2012, dated 2015).
Values after ≈ are worked out from the molar mass of the structure shown. Read-outs that look alike come from different tables or passages of the source. Numbered stars: 1 amine (or outer) side, 2 acyl side, 3 side chain; on linkers, the order of the positions; unused ones are H or OH. Bridge positions count the residues as written; N and C are the ends. Side chains are listed from the residue outwards. Peptide text beside a SMILES is read from it. * marks the point of attachment. C20 diacid = O=C(O)CCCCCCCCCCCCCCCCCCC(=O)*; γGlu = O=C(O)[C@H](CCC(=O)[*:2])N[*:1]

Experiments:
[1] = ASSAY (IV) determination of solubility; assay type: physicochemical
Summary of the method: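 Solubility measured by UPLC of supernatant after centrifugation, following 18 h at room temperature. Peptide ([…] in water) was diluted 1:1 into 100 mM glycylglycine (pH 3.0, 4.0, 5.0) or bistrispropane (pH 6.0-8.0).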

[2] = target: T1, human amylin receptor (membranes from Amylin 3(a)/CRE-luc cells) (Homo sapiens, UniProt O60896+P30988); assay: ASSAY (V) binding to the human amylin receptor (SPA, 125I-rat amylin);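 further: competition binding of cell membranes (35 ng/µL) mixed with SPA beads in 384-well plates at 40 µL total volume, read by scintillation counting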
T1 construct: expressed in transfected cells
T1 sequence (P30988 25-474): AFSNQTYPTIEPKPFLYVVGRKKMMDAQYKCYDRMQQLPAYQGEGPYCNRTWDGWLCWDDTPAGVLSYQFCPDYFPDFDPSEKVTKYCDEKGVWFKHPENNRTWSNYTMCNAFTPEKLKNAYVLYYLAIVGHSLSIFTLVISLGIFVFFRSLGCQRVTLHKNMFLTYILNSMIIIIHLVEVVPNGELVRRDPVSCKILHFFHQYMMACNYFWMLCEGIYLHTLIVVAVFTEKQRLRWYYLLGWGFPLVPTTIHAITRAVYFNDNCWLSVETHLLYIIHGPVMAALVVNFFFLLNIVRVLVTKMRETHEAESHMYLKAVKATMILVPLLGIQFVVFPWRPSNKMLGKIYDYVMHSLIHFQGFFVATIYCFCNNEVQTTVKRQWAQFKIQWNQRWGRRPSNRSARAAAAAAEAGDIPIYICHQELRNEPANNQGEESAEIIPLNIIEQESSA
T1 sequence (O60896 24-148 partner): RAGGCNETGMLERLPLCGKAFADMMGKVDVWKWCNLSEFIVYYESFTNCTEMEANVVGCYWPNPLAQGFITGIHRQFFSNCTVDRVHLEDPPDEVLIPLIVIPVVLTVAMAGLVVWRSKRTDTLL

[3] = target: T2, rat amylin receptor (rat calcitonin receptor + rat RAMP 3) (Rattus norvegicus, UniProt P32214+Q9JJ73); assay: ASSAY (VI) binding to the rat amylin receptor; settings: for IC50: binding to rat amylin receptor, read-out: rAmylin-R bind IC50
T2 construct: expressed in transfected cells; host or cells: BHK tk'ts 13 (transient, FuGENE 6), membranes
T2 sequence (P32214 25-479 isoform P32214-2 limits assumed): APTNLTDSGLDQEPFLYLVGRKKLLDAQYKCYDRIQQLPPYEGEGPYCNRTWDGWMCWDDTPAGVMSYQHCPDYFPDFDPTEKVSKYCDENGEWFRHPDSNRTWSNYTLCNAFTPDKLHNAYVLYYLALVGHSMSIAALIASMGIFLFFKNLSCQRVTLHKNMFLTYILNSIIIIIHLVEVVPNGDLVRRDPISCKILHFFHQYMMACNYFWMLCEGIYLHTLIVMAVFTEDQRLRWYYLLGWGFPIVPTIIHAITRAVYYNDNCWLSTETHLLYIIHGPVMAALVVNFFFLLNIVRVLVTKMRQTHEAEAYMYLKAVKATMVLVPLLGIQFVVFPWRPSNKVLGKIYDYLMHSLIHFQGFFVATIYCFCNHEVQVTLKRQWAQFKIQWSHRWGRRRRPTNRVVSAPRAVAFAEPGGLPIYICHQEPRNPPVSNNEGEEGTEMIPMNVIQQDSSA
T2 sequence (Q9JJ73 23-147 partner): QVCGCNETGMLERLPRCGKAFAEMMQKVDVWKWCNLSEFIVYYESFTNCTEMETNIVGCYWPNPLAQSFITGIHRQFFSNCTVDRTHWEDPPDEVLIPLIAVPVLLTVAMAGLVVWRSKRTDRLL
Summary of the method: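 Membranes for this rat amylin receptor binding assay came from BHK tk′ts 13 cells. The cells were transiently transfected with rat calcitonin receptor using the FuGENE® 6 reagent from Roche, as the manufacturer recommends. The cells were collected approximately 48 hours after transfection, and membranes were then prepared.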

rat calcitonin receptor = target: T3, rat calcitonin receptor (Rattus norvegicus, UniProt P32214); assay: ASSAY (VIII) binding to the rat calcitonin receptor; settings: Table 7, read-out: rCTR bind IC50
T3 construct: expressed in transfected cells; host or cells: BHK tk'ts 13 (transient, FuGENE 6), membranes
T3 sequence (P32214 25-479 isoform P32214-2 limits assumed): T2 sequence (P32214 25-479 isoform P32214-2 limits assumed)
Summary of the method: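 BHK tk′ts 13 cells, transient rat calcitonin receptor transfection; DMEM + 10% FBS; harvest ~48 h post-transfection; membrane prep.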

[4] = target: T4, human amylin 3(a) receptor (human calcitonin receptor + RAMP-3) in BHK570 cells (Homo sapiens, UniProt O60896+P30988); assay: ASSAY (II)a functional assay, human amylin receptor (CRE luciferase); assay type: cell-based
T4 construct: expressed in transfected cells
Summary of the method: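 Receptor activation is measured as cAMP-driven CRE-luciferase expression in BHK cells expressing the calcitonin receptor, with RAMP-3 co-expressed to form the amylin 3(a) receptor. Cells are exposed to compound for 3 hours at 37° C, and luciferase is then quantified by luminescence.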

[5] = bistrispropane buffer, pH 6.5, read-out: Solubility pH 6.5 Concentration
[6] = bistrispropane buffer, pH 7.5, read-out: Solubility pH 7.5 Concentration
[7] = bistrispropane buffer, pH 6.0, read-out: Solubility pH 6.0 Concentration
[8] = bistrispropane buffer, pH 7.0, read-out: Solubility pH 7.0 Concentration
[9] = bistrispropane buffer, pH 8.0, read-out: Solubility pH 8.0 Concentration
[10] = glycylglycine buffer, pH 3.0, read-out: Solubility pH 3.0 Concentration
[11] = glycylglycine buffer, pH 4.0, read-out: Solubility pH 4.0 Concentration
[12] = glycylglycine buffer, pH 5.0, read-out: Solubility pH 5.0 Concentration
[13] = Table 5, selectivity, hCTR bind IC50 / hAmylin-R bind IC50
[14] = Table 5a, selectivity, hCTR bind IC50 / hAmylin-R bind IC50
[15] = Table 5b, selectivity, hCTR bind IC50 / hAmylin-R bind IC50
[16] = Table 7, human binding selectivity, included for comparison
[17] = Table 7a (preferred compounds), human binding selectivity, included for comparison
[18] = ratio of human calcitonin receptor binding IC50 to human amylin receptor binding IC50
[19] = Table 7, rat binding selectivity, rCTR IC50 / rAmylin-R IC50
[20] = Table 7a (preferred compounds), rat binding selectivity, rCTR IC50 / rAmylin-R IC50
[21] = ratio of rCTR bind IC50 to rAmylin-R bind IC50
[22] = hCTR funct. EC50 divided by hAmylin-R funct. EC50
[23] = hCTR funct. EC50 over hAmylin-R funct. EC50
[24] = human functional selectivity: hCTR funct. EC50 / hAmylin-R funct. EC50

Row | solubility at 18 h [1, 5] [µM] | solubility at 18 h [1, 6] [µM] | solubility at 18 h [1, 7] [µM] | solubility at 18 h [1, 8] [µM] | solubility at 18 h [1, 9] [µM] | solubility at 18 h [1, 10] [µM] | solubility at 18 h [1, 11] [µM] | solubility at 18 h [1, 12] [µM] | Ratio hCT/hAmylin binding [2, 13] | Ratio hCT/hAmylin binding [2, 14] | Ratio hCT/hAmylin binding [2, 15] | Ratio hCT/hAmylin binding [2, 16] | Ratio hCT/hAmylin binding [2, 17] | Ratio hCT/hAmylin binding [2, 18] | IC50 ([3]; Table 7) [nM] | Ratio rCT/rAmylin binding [3, 19] | Ratio rCT/rAmylin binding [3, 20] | Ratio rCT/rAmylin binding [3, 21] | IC50 (rat calcitonin receptor) [nM] | Ratio hCT/hAmylin funct. [4, 22] | Structure (SMILES) | further results
1 | ≥ 200 | 88 (≈ 396 µg/mL) | ≥ 200 | 154 (≈ 693 µg/mL) | 113 (≈ 508 µg/mL) | ≥ 200 | 197 (≈ 886 µg/mL) | 195 (≈ 877 µg/mL) | 36.2 | 36.2 | 36.2 | 36.2 | 36.2 | 36.2 | 0.674 | 97.7 | 97.7 | 97.7 | 65.9 | 2.9 | CC[C@H](C)[C@H](NC(=O)[C@H](C)NC(=O)CNC(=O)[C@H](Cc1ccccc1)NC(=O)[C@H](CC(N)=O)NC(=O)[C@@H]1CCCN1C(=O)[C@H](CO)NC(=O)[C@H](CO)NC(=O)[C@H](Cc1c[nH]cn1)NC(=O)[C@H](CCCNC(=N)N)NC(=O)[C@H](CC(C)C)NC(=O)[C@H](Cc1ccccc1)NC(=O)[C@H](Cc1c[nH]cn1)NC(=O)[C@H](C)NC(=O)[C@H](CC(C)C)NC(=O)[C@H](CCCNC(=N)N)NC(=O)[C@H](CCC(N)=O)NC(=O)[C@@H](NC(=O)[C@H](C)NC(=O)[C@@H]1CSSC[C@H](NC(=O)[C@H](CCCNC(=N)N)NC(=O)CNC(=O)CC[C@H](NC(=O)CCCCCCCCCCCCCCCCCCC(=O)O)C(=O)O)C(=O)N[C@@H](CC(N)=O)C(=O)N[C@@H]([C@@H](C)O)C(=O)N[C@@H](C)C(=O)N[C@@H]([C@@H](C)O)C(=O)N1)[C@@H](C)O)C(=O)N1CCC[C@H]1C(=O)N[C@@H](CO)C(=O)N[C@@H](CO)C(=O)N[C@H](C(=O)N[C@@H](CC(N)=O)C(=O)N[C@H](C(=O)NCC(=O)N1CCC[C@H]1C(=O)N[C@@H](CC(N)=O)C(=O)N[C@H](C(=O)N[C@@H](Cc1ccc(O)cc1)C(N)=O)[C@@H](C)O)C(C)C)[C@@H](C)O [Example 102] ({C20 diacid-γGlu}-GRCNTATCATQRLAHFLRHSSPNFGAIPSSTNVGPNTY-NH2; disulfide 3-8 (inferred)) | Ratio hCT/hAmylin binding ([2]; Table 5c, selectivity, hCTR bind IC50 / hAmylin-R bind IC50): 36.2; Ratio hCT/hAmylin funct. ([4]; hCTR funct. EC50 / hAmylin-R funct. EC50): 2.9; Ratio hCT/hAmylin funct. [4, 23]: 2.9; Ratio hCT/hAmylin funct. [4, 24]: 2.9
2 |  |  |  |  |  |  |  |  | 18.0 | 18.0 | 18.0 | 18.0 | 18.0 | 18.0 | 0.205 | 114.0 | 114.0 | 114.0 | 23.4 | 9.9 | CC[C@H](C)[C@H](NC(=O)[C@H](C)NC(=O)CNC(=O)[C@H](Cc1ccccc1)NC(=O)[C@H](CC(N)=O)NC(=O)[C@@H]1CCCN1C(=O)[C@H](CO)NC(=O)[C@H](CO)NC(=O)[C@H](Cc1c[nH]cn1)NC(=O)[C@H](CCCNC(=N)N)NC(=O)[C@H](CC(C)C)NC(=O)[C@H](Cc1ccccc1)NC(=O)[C@H](CCC(=O)O)NC(=O)[C@H](C)NC(=O)[C@H](CC(C)C)NC(=O)[C@H](CCCNC(=N)N)NC(=O)[C@H](CCC(N)=O)NC(=O)[C@@H](NC(=O)[C@H](C)NC(=O)[C@@H]1CSSC[C@H](NC(=O)[C@@H](N)CCCCNC(=O)CC[C@H](NC(=O)CC[C@H](NC(=O)CCCCCCCCCCCCCCCCCCC(=O)O)C(=O)O)C(=O)O)C(=O)N[C@@H](CC(N)=O)C(=O)N[C@@H]([C@@H](C)O)C(=O)N[C@@H](C)C(=O)N[C@@H]([C@@H](C)O)C(=O)N1)[C@@H](C)O)C(=O)N1CCC[C@H]1C(=O)N[C@@H](CO)C(=O)N[C@@H](CO)C(=O)N[C@H](C(=O)N[C@@H](CC(N)=O)C(=O)N[C@H](C(=O)NCC(=O)N1CCC[C@H]1C(=O)N[C@@H](CC(N)=O)C(=O)N[C@H](C(=O)N[C@@H](Cc1ccccc1)C(N)=O)[C@@H](C)O)C(C)C)[C@@H](C)O [Example 127] (H-K([γGlu-γGlu-C20 diacid])CNTATCATQRLAEFLRHSSPNFGAIPSSTNVGPNTF-NH2; disulfide 2-7 (inferred)) | Ratio hCT/hAmylin funct. [4, 23]: 9.9; Ratio hCT/hAmylin funct. [4, 24]: 9.9
3 | ≥ 200 | ≥ 200 | ≥ 200 | ≥ 200 | ≥ 200 | ≥ 200 | ≥ 200 | ≥ 200 |  |  |  |  |  |  | 0.383 |  |  |  | 38 |  | CC[C@H](C)[C@H](NC(=O)[C@H](C)NC(=O)CNC(=O)[C@H](Cc1ccccc1)NC(=O)[C@H](CC(N)=O)NC(=O)[C@@H]1CCCN1C(=O)[C@H](CO)NC(=O)[C@H](CO)NC(=O)[C@H](Cc1c[nH]cn1)NC(=O)[C@H](CCCNC(=N)N)NC(=O)[C@H](CC(C)C)NC(=O)[C@H](Cc1ccccc1)NC(=O)[C@H](CC(N)=O)NC(=O)[C@H](C)NC(=O)[C@H](CC(C)C)NC(=O)[C@H](CCCNC(=N)N)NC(=O)[C@H](CCC(N)=O)NC(=O)[C@@H](NC(=O)[C@H](C)NC(=O)[C@@H]1CSSC[C@H](NC(=O)[C@@H](N)CCCCNC(=O)COCCOCCNC(=O)CC[C@H](NC(=O)CCCCCCCCCCCCCCCCCCC(=O)O)C(=O)O)C(=O)N[C@@H](CC(N)=O)C(=O)N[C@@H]([C@@H](C)O)C(=O)N[C@@H](C)C(=O)N[C@@H]([C@@H](C)O)C(=O)N1)[C@@H](C)O)C(=O)N1CCC[C@H]1C(=O)N[C@@H](CO)C(=O)N[C@@H](CO)C(=O)N[C@H](C(=O)N[C@@H](CC(N)=O)C(=O)N[C@H](C(=O)NCC(=O)N[C@@H](CO)C(=O)N[C@@H](CCCNC(=N)N)C(=O)N[C@H](C(=O)N[C@@H](Cc1ccc(O)cc1)C(N)=O)[C@@H](C)O)C(C)C)[C@@H](C)O [Example 38] | 
